In patent US9481676B2, “Azepino[4,5-B]indoles and methods of use” (Medivation Technologies, Inc., priority 2008, dated 2016) one finds inhibition data, which are given here for 17 molecules.

Experiment [1] concerns the target T1, human recombinant histamine H1 receptor (Homo sapiens, UniProt P35367).
T1 construct: expressed in transfected cells; host or cells: CHO cells
In words: Histamine H1 radioligand binding ([3H]Pyrilamine). The conditions noted are these: compound at 1 μM; read-out: Histamine Binding (1 μM) H1, percent inhibition of specific binding. The method in brief:
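Membranes from CHO cells expressing the receptor were incubated with compound and 1.2 nM [3H]pyrilamine for 180 min at 25 °C in 50 mM Tris-HCl pH 7.4 with MgCl2, NaCl and sucrose; 1 μM pyrilamine defined non-specific binding. Filter-bound radioactivity was counted.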

Experiment [2] deals with T2, human recombinant histamine H2 receptor (Homo sapiens, UniProt P25021).
T2 construct: expressed in transfected cells; host or cells: CHO-K1 cells
T2 sequence (P25021 whole entry): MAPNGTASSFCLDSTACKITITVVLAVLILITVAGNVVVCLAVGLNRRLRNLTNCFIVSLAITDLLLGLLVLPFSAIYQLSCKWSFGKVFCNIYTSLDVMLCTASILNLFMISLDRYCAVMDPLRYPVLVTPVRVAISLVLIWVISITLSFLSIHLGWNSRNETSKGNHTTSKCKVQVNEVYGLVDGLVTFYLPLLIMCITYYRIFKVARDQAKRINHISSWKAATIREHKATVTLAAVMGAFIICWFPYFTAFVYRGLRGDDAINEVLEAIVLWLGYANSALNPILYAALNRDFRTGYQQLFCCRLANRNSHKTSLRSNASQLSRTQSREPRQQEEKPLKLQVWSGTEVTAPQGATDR
In words: Histamine H2 radioligand binding ([125I]Aminopotentidine). To be noted: compound at 1 μM; read-out: Histamine Binding (1 μM) H2, percent inhibition of specific binding. Summed up: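 Membranes from CHO-K1 cells expressing recombinant human H2 receptor, in 50 mM phosphate buffer pH 7.4, incubated with 0.1 nM [125I]aminopotentidine for 120 min at 25 °C; nonspecific binding defined with 3 μM tiotidine.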

Experiment [3] concerns the target T3, human recombinant adrenergic α1D receptor (Homo sapiens, UniProt P25100).
T3 construct: expressed in transfected cells; host or cells: HEK-293 cells
T3 sequence (P25100 1-572): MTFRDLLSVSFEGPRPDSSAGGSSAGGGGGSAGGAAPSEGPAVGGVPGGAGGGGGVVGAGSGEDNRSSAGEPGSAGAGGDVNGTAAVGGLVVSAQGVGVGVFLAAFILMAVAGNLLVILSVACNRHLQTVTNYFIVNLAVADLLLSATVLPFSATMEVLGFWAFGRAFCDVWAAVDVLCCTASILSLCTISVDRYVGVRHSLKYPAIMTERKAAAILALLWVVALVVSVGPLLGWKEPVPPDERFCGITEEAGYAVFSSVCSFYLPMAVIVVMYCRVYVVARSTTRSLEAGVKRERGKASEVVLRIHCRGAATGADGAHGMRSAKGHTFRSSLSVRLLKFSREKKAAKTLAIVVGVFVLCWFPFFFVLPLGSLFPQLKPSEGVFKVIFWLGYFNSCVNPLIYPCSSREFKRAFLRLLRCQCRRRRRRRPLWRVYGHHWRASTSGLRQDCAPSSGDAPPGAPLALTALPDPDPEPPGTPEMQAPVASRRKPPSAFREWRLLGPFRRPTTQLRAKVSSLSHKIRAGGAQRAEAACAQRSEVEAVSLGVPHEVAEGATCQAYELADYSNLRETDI
The experiment can be described thus: Adrenergic alpha1D radioligand binding ([3H]Prozosin). The conditions noted are these: compound at 1 μM; read-out: Adrenergic (1 μM) α1D, percent inhibition of specific binding. The method in brief: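 Membranes from HEK-293 cells expressing the human receptor in 50 mM Tris-HCl pH 7.4 were incubated 60 min at 25 °C with 0.6 nM [3H]prazosin. Nonspecific binding was defined with 10 μM phentolamine, and bound ligand measured by filtration.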

Experiment [4] has as its target T4, human recombinant adrenergic α2A receptor (Homo sapiens, UniProt P08913).
T4 construct: expressed in transfected cells; host or cells: insect Sf9 cells
T4 sequence (P08913 1-465): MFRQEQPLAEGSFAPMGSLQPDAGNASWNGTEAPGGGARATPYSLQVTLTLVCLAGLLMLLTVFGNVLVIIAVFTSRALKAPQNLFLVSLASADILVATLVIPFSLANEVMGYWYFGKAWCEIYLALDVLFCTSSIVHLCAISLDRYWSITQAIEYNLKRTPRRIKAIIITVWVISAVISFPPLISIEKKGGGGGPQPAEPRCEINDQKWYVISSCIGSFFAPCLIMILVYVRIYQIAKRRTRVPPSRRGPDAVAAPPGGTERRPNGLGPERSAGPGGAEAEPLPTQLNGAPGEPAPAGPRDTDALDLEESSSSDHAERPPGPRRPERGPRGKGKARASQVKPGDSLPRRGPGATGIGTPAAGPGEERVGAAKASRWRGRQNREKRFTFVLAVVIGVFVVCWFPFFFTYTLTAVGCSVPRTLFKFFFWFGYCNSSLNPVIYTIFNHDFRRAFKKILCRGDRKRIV
The experiment can be described thus: Adrenergic alpha2A radioligand binding ([3H]MK-912). To be noted: compound at 1 μM; read-out: Adrenergic (1 μM) α2A, percent inhibition of specific binding. Summed up:
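Membranes of Sf9 cells expressing human recombinant α2A receptor were incubated with compound and 1 nM [3H]MK-912 for 60 min at 25 °C in 50 mM Tris-HCl pH 7.4, 12.5 mM MgCl2, 2 mM EDTA. Nonspecific binding: 10 μM WB-4101.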

T1 sequence (P35367 whole entry): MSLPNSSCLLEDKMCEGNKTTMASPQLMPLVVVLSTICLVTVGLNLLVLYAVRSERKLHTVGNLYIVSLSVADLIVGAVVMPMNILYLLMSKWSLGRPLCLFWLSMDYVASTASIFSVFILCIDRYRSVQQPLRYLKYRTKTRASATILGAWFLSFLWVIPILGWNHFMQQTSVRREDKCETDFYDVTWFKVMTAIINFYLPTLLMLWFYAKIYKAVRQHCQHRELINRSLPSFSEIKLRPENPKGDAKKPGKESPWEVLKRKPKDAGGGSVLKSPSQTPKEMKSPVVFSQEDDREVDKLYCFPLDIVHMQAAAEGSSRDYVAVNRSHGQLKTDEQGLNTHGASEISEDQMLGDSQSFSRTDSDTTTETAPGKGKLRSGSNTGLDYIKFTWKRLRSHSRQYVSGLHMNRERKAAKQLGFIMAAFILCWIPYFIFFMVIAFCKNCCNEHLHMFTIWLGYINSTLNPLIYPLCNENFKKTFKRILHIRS

The term inhibition denotes the change of the read-out against control, counted positive when it falls. In the case of `CN1CCc2c(n(/C=C/c3ccccc3F)c3ccc(Cl)cc23)CC1` [Compound No. 83, (E)-9-chloro-6-(2-fluorostyryl)-3-methyl-1,2,3,4,5,6-hexahydro azepino[4,5-b]indole], the inhibition at 1 µM in experiment [1] amounted to 97%; in experiment [2], 98%; in experiment [3], 93%; in experiment [4] it was 99%.
On the same counts, the results for `Cc1ccc2c(c1)c1c(n2CC(=O)Nc2ccccc2)CCN(C)CC1` [Compound No. 79, 2-(2,3,4,5-tetrahydro-3,9-dimethylazepino[4,5-b]indol-6(1H)-yl)-N-phenylacetamide] are 6%, 0%, -6% and 17%.
On the same counts, the results for `COc1ccc(/C=C/n2c3c(c4cc(Cl)ccc42)CCN(C)CC3)cc1F` [Compound No. 158, (E)-6-(3-fluoro-4-methoxystyryl)-9-chloro-1,2,3,4,5,6-hexahydro-3-methylazepino[4,5-b]indole] are 98%, 89%, 98% and 99%.
On the same counts, the results for `Cc1ccc2c(c1)c1c(n2CC(=O)N2CCNCC2)CCN(C)CC1` [Compound No. 224, 2-(3,9-dimethyl-2,3,4,5-tetrahydroazepino[4,5-b]indol-6(1H)-yl)-1-(piperazin-1-yl)ethanone] are 33%, -4%, 19% and 8%.
Take `Cc1cncc(CCn2c3c(c4cc(Cl)ccc42)CCN(C)CC3)c1` [Compound No. 3, 9-chloro-3-methyl-6-(2-(5-methylpyridin-3-yl)ethyl)-1,2,3,4,5,6-hexahydroazepino[4,5-b]indole]: the inhibition at 1 µM in experiment [1] worked out at 102%; in experiment [2], 82%; in experiment [3], 89%; in experiment [4] it was 91%.
On the same counts, the results for `COc1ccc(/C=C/n2c3c(c4cc(Cl)ccc42)CCN(C)CC3)cc1OC` [Compound No. 226, (E)-9-chloro-6-(3,4-dimethoxystyryl)-3-methyl-1,2,3,4,5,6-hexahydroazepino[4,5-b]indole] are 99%, 39%, 83% and 93%.
On the same counts, the results for `CN1CCc2c(n(/C=C/c3ccccc3)c3ccc(Cl)cc23)CC1` [Compound No. 228, (E)-9-chloro-3-methyl-6-styryl-1,2,3,4,5,6-hexahydroazepino[4,5-b]indole] are 99%, 97%, 98% and 102%.
On the same counts, the results for `C/C(=C/n1c2c(c3cc(C)ccc31)CCN(C)CC2)c1ccc(Cl)cc1Cl` [Compound No. 174, (Z)-6-(2-(2,4-dichlorophenyl)prop-1-enyl)-1,2,3,4,5,6-hexahydro-3,9-dimethylazepino[4,5-b]indole] are 98%, 99%, 89% and 101%.
For the molecule `Cc1ccc2c(c1)c1c(n2CC(=O)N2CCC(C)CC2)CCN(C)CC1` [Compound No. 225, 2-(3,9-dimethyl-2,3,4,5-tetrahydroazepino[4,5-b]indol-6(1H)-yl)-1-(4-methylpiperidin-1-yl)ethanone], the inhibition at 1 µM in experiment [1] is 95%; in experiment [2], 6%; in experiment [3], 34%; in experiment [4] it was 0%.
On the same counts, the results for `COc1ccc(C(O)Cn2c3c(c4cc(Cl)ccc42)CCN(C)CC3)cc1OC` (centres unmarked) [Compound No. 77, 2-(9-chloro-2,3,4,5-tetrahydro-3-methylazepino[4,5-b]indol-6(1H)-yl)-1-(3,4-dimethoxyphenyl)ethanol] are 97%, 37%, 81% and 85%.
In the case of `C=C(Cn1c2c(c3cc(Cl)ccc31)CCN(C)CC2)c1ccc(F)cc1` [Compound No. 82, 9-chloro-6-(2-(4-fluorophenyl)allyl)-3-methyl-1,2,3,4,5,6-hexahydroazepino[4,5-b]indole], the inhibition at 1 µM came out at 103% in experiment [1], 95% in experiment [2], 96% in experiment [3] and 96% in experiment [4].
For `C/C(=C/n1c2c(c3cc(Cl)ccc31)CCN(C)CC2)c1ccc(Cl)cc1Cl` [Compound No. 152, (Z)-9-chloro-6-(2-(2,4-dichlorophenyl)prop-1-enyl)-1,2,3,4,5,6-hexahydro-3-methylazepino[4,5-b]indole], the inhibition at 1 µM is 91% in experiment [1], 86% in experiment [2], 47% in experiment [3] and 93% in experiment [4].
On the same counts, the results for `COc1ccc(C(O)Cn2c3c(c4cc(C)ccc42)CCN(C)CC3)cc1OC` (centres unmarked) [Compound No. 227, 1-(3,4-dimethoxyphenyl)-2-(3,9-dimethyl-2,3,4,5-tetrahydroazepino[4,5-b]indol-6(1H)-yl)ethanol] are 95%, 19%, 73% and 70%.
On the same counts, the results for `COc1ccc(/C=C/n2c3c(c4cc(C)ccc42)CCN(C)CC3)cc1F` [Compound No. 180, (E)-6-(3-fluoro-4-methoxystyryl)-1,2,3,4,5,6-hexahydro-3,9-dimethylazepino[4,5-b]indole] are 97%, 77%, 98% and 99%.
On to `CN1CCc2c(n(CCc3ccc(C(F)(F)F)nc3)c3ccc(Cl)cc23)CC1` [Compound No. 1, 9-chloro-6-(2-(6-(trifluoromethyl)pyridin-3-yl)ethyl)-1,2,3,4,5,6-hexahydro-3-methylazepino[4,5-b]indole], for which the inhibition at 1 µM worked out at 96% in experiment [1], 58% in experiment [2], 90% in experiment [3] and 90% in experiment [4].
With `COc1ccc(/C=C/n2c3c(c4cc(Cl)ccc42)CCN(C)CC3)cc1` [Compound No. 78, 6-(4-methoxystyryl)-9-chloro-1,2,3,4,5,6-hexahydro-3-methylazepino[4,5-b]indole], the inhibition at 1 µM in experiment [1] turned out to be 100%; in experiment [2], 91%; in experiment [3] it was 102%; in experiment [4] it was 83%.
On the same counts, the results for `C/C(=C\n1c2c(c3cc(Cl)ccc31)CCN(C)CC2)c1ccc(F)cc1` [Compound No. 2, 9-chloro-6-((E)-2-(4-fluorophenyl)prop-1-enyl)-1,2,3,4,5,6-hexahydro-3-methylazepino[4,5-b]indole] are 93%, 105%, 100% and 96%.
